Measured values reported in BigSolDB 2.1.

Conditions: in isobutyl acetate

O=C(O)c1ccccc1C(=O)O
solubility (mole fraction) (300.68 K): 0.0011
solubility (mole fraction) (302.37 K): 0.0012
solubility (mole fraction) (304.42 K): 0.0012
solubility (mole fraction) (309.58 K): 0.0016
solubility (mole fraction) (312.72 K): 0.0022
solubility (mole fraction) (317.36 K): 0.0026
solubility (mole fraction) (326.85 K): 0.0032
solubility (mole fraction) (331.86 K): 0.0037
solubility (mole fraction) (335.27 K): 0.005
solubility (mole fraction) (340.04 K): 0.0062
solubility (mole fraction) (342.69 K): 0.0077
solubility (mole fraction) (348.7 K): 0.0092

O=C(O)c1ccccc1
solubility (mole fraction) (299.73 K): 0.14
solubility (mole fraction) (302.46 K): 0.149
solubility (mole fraction) (307.34 K): 0.178
solubility (mole fraction) (313.61 K): 0.208
solubility (mole fraction) (322.93 K): 0.254
solubility (mole fraction) (328.98 K): 0.293
solubility (mole fraction) (332.24 K): 0.311
solubility (mole fraction) (334.34 K): 0.325
solubility (mole fraction) (335.58 K): 0.337
solubility (mole fraction) (336.03 K): 0.338
solubility (mole fraction) (337.33 K): 0.349
solubility (mole fraction) (337.67 K): 0.351
solubility (mole fraction) (338.76 K): 0.358
solubility (mole fraction) (339.37 K): 0.362
solubility (mole fraction) (339.86 K): 0.369
solubility (mole fraction) (341.48 K): 0.379
solubility (mole fraction) (342.69 K): 0.39
solubility (mole fraction) (343.67 K): 0.399

Cc1ccc(C(=O)O)cc1
solubility (mole fraction) (300.19 K): 0.0328
solubility (mole fraction) (303.04 K): 0.0338
solubility (mole fraction) (306.43 K): 0.0356
solubility (mole fraction) (310.28 K): 0.0421
solubility (mole fraction) (312.7 K): 0.0434
solubility (mole fraction) (315.36 K): 0.0475
solubility (mole fraction) (319.97 K): 0.0525
solubility (mole fraction) (323.16 K): 0.0573
solubility (mole fraction) (324.84 K): 0.0612
solubility (mole fraction) (325.76 K): 0.0653
solubility (mole fraction) (329.67 K): 0.0692
solubility (mole fraction) (332.48 K): 0.0735
solubility (mole fraction) (333.91 K): 0.0774
solubility (mole fraction) (335.96 K): 0.0813
solubility (mole fraction) (337.49 K): 0.0848
solubility (mole fraction) (339.46 K): 0.0885
solubility (mole fraction) (341.07 K): 0.0918
solubility (mole fraction) (342.68 K): 0.0954
solubility (mole fraction) (344.69 K): 0.0994
solubility (mole fraction) (345.82 K): 0.103
solubility (mole fraction) (347.26 K): 0.107
solubility (mole fraction) (348.41 K): 0.11

O=C(O)c1ccc(C(=O)O)cc1
solubility (mole fraction) (305.15 K): 2.38e-05
solubility (mole fraction) (308.15 K): 2.57e-05
solubility (mole fraction) (313.15 K): 3.22e-05
solubility (mole fraction) (318.15 K): 3.41e-05
solubility (mole fraction) (323.15 K): 3.86e-05
solubility (mole fraction) (328.15 K): 5.78e-05
solubility (mole fraction) (333.15 K): 7.07e-05
solubility (mole fraction) (338.15 K): 8.25e-05
solubility (mole fraction) (343.15 K): 8.91e-05
solubility (mole fraction) (348.15 K): 0.000104

O=C(O)c1cccc(C(=O)O)c1
solubility (mole fraction) (308.15 K): 0.000352
solubility (mole fraction) (313.15 K): 0.000388
solubility (mole fraction) (318.15 K): 0.000438
solubility (mole fraction) (323.15 K): 0.000507
solubility (mole fraction) (328.15 K): 0.000691
solubility (mole fraction) (333.15 K): 0.000917
solubility (mole fraction) (338.15 K): 0.0013
solubility (mole fraction) (343.15 K): 0.00166
solubility (mole fraction) (348.15 K): 0.00201
solubility (mole fraction) (353.15 K): 0.00221
